According to patent EP0908457B1, “3-(1,2-benzisothiazol- and isoxazol-5-Y1)-2,4(1H,3H)-pyrimidinedione or thione and 3-(1,2-benzisothiazol- and isoxazol-5-y1)-4(3H)-pyrimidinone or thione herbicidal agents” (BASF AKTIENGESELLSCHAFT, priority 1997, dated 1999):

Columns and labels:
Sagittaria pygmaea, L. = experiment: Preemergence weed control under flooded paddy conditions, SAGPY (Arrowhead (Pygmaea)); assay type: in vivo; settings: flooded paddy; for herbicidal effect rating, SAGPY: preemergence, rated 3-4 weeks after treatment; for SAGPY: preemergence weeds, herbicidal effect rating 0-9, three to four weeks after treatment
Cyperus iria = experiment: Preemergence weed control under flooded paddy conditions, CYPIR (Rice Flatsedge); assay type: in vivo; settings: flooded paddy; for herbicidal effect rating, CYPIR: preemergence, rated 3-4 weeks after treatment; for CYPIR: preemergence weeds, herbicidal effect rating 0-9, three to four weeks after treatment
[1] = tested on: Oryza sativa, (L.) Tebonnet; experiment: Rice tolerance to post-transplant applications under flooded paddy conditions (Example 187), ORYSAT (Rice, Tebonnet); settings: for herbicidal effect rating ORYSAT: rated 3-4 weeks after treatment; for ORYSAT: herbicidal effect rating 0-9, three to four weeks after treatment; on herbicidal effect rating ORYSAT: meaning of each grade not given here
[2] = tested on: Cyperus serotinus, Rottb.; experiment: Preemergence weed control under flooded paddy conditions, CYPSE (Flatsedge); assay type: in vivo; settings: for herbicidal effect rating, CYPSE: preemergence, rated 3-4 weeks after treatment; for CYPSE: preemergence weeds, herbicidal effect rating 0-9, three to four weeks after treatment
[3] = tested on: Monochoria vaginalis, Presl.; experiment: Preemergence weed control under flooded paddy conditions, MOOVA (Monochoria); assay type: in vivo; settings: flooded paddy; for herbicidal effect rating, MOOVA: preemergence, rated 3-4 weeks after treatment; for MOOVA: preemergence weeds, herbicidal effect rating 0-9, three to four weeks after treatment
[4] = tested on: Echinochloa oryzoides (Ard.) Fritsch.; experiment: Preemergence weed control under flooded paddy conditions, ECHORC (Watergrass (Calif.)); assay type: in vivo; settings: flooded paddy; for herbicidal effect rating, ECHORC: preemergence, rated 3-4 weeks after treatment; for ECHORC: preemergence weeds, herbicidal effect rating 0-9, three to four weeks after treatment

Cc1ccc(C(=O)C(C)Oc2ccccc2-c2nsc3ccc(-n4c(=O)cc(C(F)(F)F)n(C)c4=O)cc23)cc1C (stereo not drawn) [Example 550, 2,4(1H,3H)-Pyrimidinedione, 3-{-3-{o-[1-(3,4-dimethylbenzoyl)ethoxy]phenyl}-1,2-benzisothiazol-5-yl]-1-methyl-6-(trifluoromethyl)-]
herbicidal effect rating, SAGPY (Sagittaria pygmaea, L.; Rate 0.0320 kg/ha): 0.0 | herbicidal effect rating, SAGPY (Sagittaria pygmaea, L.; Rate 0.0620 kg/ha): 0.0 | herbicidal effect rating, SAGPY (Sagittaria pygmaea, L.; Rate 0.1250 kg/ha): 0.0 | herbicidal effect rating, SAGPY (Sagittaria pygmaea, L.; Rate 0.2500 kg/ha): 0.0 | herbicidal effect rating, SAGPY (Sagittaria pygmaea, L.; Rate 0.5000 kg/ha): 0.0 | herbicidal effect rating, CYPIR (Cyperus iria; Rate 0.0320 kg/ha): 2.0 | herbicidal effect rating, CYPIR (Cyperus iria; Rate 0.0620 kg/ha): 8.0 | herbicidal effect rating, CYPIR (Cyperus iria; Rate 0.1250 kg/ha): 8.0 | herbicidal effect rating, CYPIR (Cyperus iria; Rate 0.2500 kg/ha): 7.0 | herbicidal effect rating, CYPIR (Cyperus iria; Rate 0.5000 kg/ha): 5.0 | herbicidal effect rating ORYSAT ([1]; Rate 0.0320 kg/ha): 0.0 | herbicidal effect rating ORYSAT ([1]; Rate 0.0620 kg/ha): 0.0 | herbicidal effect rating ORYSAT ([1]; Rate 0.1250 kg/ha): 0.0 | herbicidal effect rating ORYSAT ([1]; Rate 0.2500 kg/ha): 0.0 | herbicidal effect rating ORYSAT ([1]; Rate 0.5000 kg/ha): 0.0 | herbicidal effect rating, CYPSE ([2]; Rate 0.0320 kg/ha): 0.0 | herbicidal effect rating, CYPSE ([2]; Rate 0.0620 kg/ha): 0.0 | herbicidal effect rating, CYPSE ([2]; Rate 0.1250 kg/ha): 0.0 | herbicidal effect rating, CYPSE ([2]; Rate 0.2500 kg/ha): 0.0 | herbicidal effect rating, CYPSE ([2]; Rate 0.5000 kg/ha): 9.0 | herbicidal effect rating, MOOVA ([3]; Rate 0.0320 kg/ha): 9.0 | herbicidal effect rating, MOOVA ([3]; Rate 0.0620 kg/ha): 9.0 | herbicidal effect rating, MOOVA ([3]; Rate 0.1250 kg/ha): 9.0 | herbicidal effect rating, MOOVA ([3]; Rate 0.2500 kg/ha): 9.0 | herbicidal effect rating, MOOVA ([3]; Rate 0.5000 kg/ha): 9.0 | herbicidal effect rating, ECHORC ([4]; Rate 0.0320 kg/ha): 4.7 | herbicidal effect rating, ECHORC ([4]; Rate 0.0620 kg/ha): 5.9 | herbicidal effect rating, ECHORC ([4]; Rate 0.1250 kg/ha): 5.9 | herbicidal effect rating, ECHORC ([4]; Rate 0.2500 kg/ha): 9.0 | herbicidal effect rating, ECHORC ([4]; Rate 0.5000 kg/ha): 9.0

CN(C)/N=C/c1nsc2ccc(-n3c(=O)cc(C(F)(F)F)n(C)c3=O)cc12 [Example 409, 1,2-Benzisothiazole-3-carboxaldehyde, 5-[3,6-dihydro-3-methyl-2,6-dioxo-4-(trifluoromethyl)-1(2H)-pyrimidinyl]-, 3-(dimethylhydrazone), (E)-]
SAGPY (Sagittaria pygmaea, L.; 0.0320 kg/ha): 2.0 | SAGPY (Sagittaria pygmaea, L.; 0.0620 kg/ha): 4.0 | SAGPY (Sagittaria pygmaea, L.; 0.1250 kg/ha): 7.0 | SAGPY (Sagittaria pygmaea, L.; 0.2500 kg/ha): 9.0 | CYPIR (Cyperus iria; 0.0320 kg/ha): 7.0 | CYPIR (Cyperus iria; 0.0620 kg/ha): 9.0 | CYPIR (Cyperus iria; 0.1250 kg/ha): 9.0 | CYPIR (Cyperus iria; 0.2500 kg/ha): 9.0 | ORYSAT ([1]; 0.0320 kg/ha): 3.0 | ORYSAT ([1]; 0.0620 kg/ha): 5.0 | ORYSAT ([1]; 0.1250 kg/ha): 7.0 | ORYSAT ([1]; 0.2500 kg/ha): 9.0 | CYPSE ([2]; 0.0320 kg/ha): 2.0 | CYPSE ([2]; 0.0620 kg/ha): 5.0 | CYPSE ([2]; 0.1250 kg/ha): 9.0 | CYPSE ([2]; 0.2500 kg/ha): 9.0 | MOOVA ([3]; 0.0320 kg/ha): 9.0 | MOOVA ([3]; 0.0620 kg/ha): 9.0 | MOOVA ([3]; 0.1250 kg/ha): 9.0 | MOOVA ([3]; 0.2500 kg/ha): 9.0 | ECHORC ([4]; 0.0320 kg/ha): 3.0 | ECHORC ([4]; 0.0620 kg/ha): 4.0 | ECHORC ([4]; 0.1250 kg/ha): 9.0 | ECHORC ([4]; 0.2500 kg/ha): 9.0

Cn1c(C(F)(F)F)cc(=O)n(-c2ccc3snc(C(=O)NS(=O)(=O)Cc4ccc(OC(F)(F)F)cc4)c3c2)c1=O [Example 406, 1,2-Benzisothiazole-3-carboxamide, 5-[3,6-dihydro-3-methyl-2,6-dioxo-4-(trifluoromethyl)-1(2H)-pyrimidinyl]-N-{[p-(trifluoromethoxy)-benzyl]sulfonyl}-]
SAGPY (Sagittaria pygmaea, L.; 0.0320 kg/ha): 3.0 | SAGPY (Sagittaria pygmaea, L.; 0.0620 kg/ha): 4.0 | SAGPY (Sagittaria pygmaea, L.; 0.1250 kg/ha): 4.0 | SAGPY (Sagittaria pygmaea, L.; 0.2500 kg/ha): 4.0 | CYPIR (Cyperus iria; 0.0320 kg/ha): 0.0 | CYPIR (Cyperus iria; 0.0620 kg/ha): 4.0 | CYPIR (Cyperus iria; 0.1250 kg/ha): 4.0 | CYPIR (Cyperus iria; 0.2500 kg/ha): 7.0 | ORYSAT ([1]; 0.0320 kg/ha): 0.0 | ORYSAT ([1]; 0.0620 kg/ha): 0.0 | ORYSAT ([1]; 0.1250 kg/ha): 2.0 | ORYSAT ([1]; 0.2500 kg/ha): 4.0 | CYPSE ([2]; 0.0320 kg/ha): 0.0 | CYPSE ([2]; 0.0620 kg/ha): 0.0 | CYPSE ([2]; 0.1250 kg/ha): 3.0 | CYPSE ([2]; 0.2500 kg/ha): 6.0 | MOOVA ([3]; 0.0320 kg/ha): 4.0 | MOOVA ([3]; 0.0620 kg/ha): 7.0 | MOOVA ([3]; 0.1250 kg/ha): 9.0 | MOOVA ([3]; 0.2500 kg/ha): 9.0 | ECHORC ([4]; 0.0320 kg/ha): 6.0 | ECHORC ([4]; 0.0620 kg/ha): 6.0 | ECHORC ([4]; 0.1250 kg/ha): 7.0 | ECHORC ([4]; 0.2500 kg/ha): 7.0
